From doi:10.1101/2024.09.11.612517v1 (bioRxiv, 2024)
Square brackets hold non-standard residues; d marks the D form. Peptide text beside a SMILES is read from it.

Tests used:
[1] = Ocular pharmacokinetics after one eye drop, rabbits; type: in vivo, New Zealand white rabbits
[2] = test system: VEGF-induced retinal vascular permeability; type: in vivo, Wistar rats; conditions: rats, single 0.5% eye drop at different times before intravitreal VEGF
[3] = Ocular pharmacokinetics after one eye drop, rats; type: in vivo, Wistar rats; conditions: 3 hours post-dose
[4] = NZ rabbits, single eyedrop of 0.5%, mean ± SEM, N = 3 eyes per timepoint, SEM
[5] = rabbits, single 0.5% eye drop, 24 hours

AUC0-24h, Retina-Choroid [1, 4]: 467,434 ± 45,884 hours × ng g^-1
AUC0-24h, Vitreous [1, 4]: 1,678 ± 182 hours × ng mL^-1
Cmax, Retina-Choroid [1, 4]: 51,693.81 ± 6678.9 ng g^-1
Retina-choroid exposure at 24 hours above IC50 ([1]; rabbits, 24 hours, vs IC50 for endothelial permeability): > 4 orders of magnitude
Cmax in retina-choroid (molar) ([1]; rabbits, single 0.5% eye drop): ~67 µM
Retina/choroid Cmax above IC50 (137.3 pM) ([1]; rabbits, single 0.5% eye drop): 5 orders of magnitude
Cmax in retina-choroid ([1]; rabbits, single 0.5% eye drop (50 µL), HUVEC bioactivity read-out): 52 µg/g
Exposure in retina-choroid after 24 hours [1, 5]: 3.5 µg/g
Exposure in retina-choroid after 24 hours (molar) [1, 5]: ~4.64 µM
Exposure in vitreous after 24 hours [1, 5]: 10.6 ng/mL
Exposure in vitreous after 24 hours (molar) [1, 5]: ~13.88 nM
Time for which high retina-choroid levels lasted ([1]; rabbits, single topical instillation of 0.5%): 24 h
Concentration in the vitreous (molar) [3]: ~391 nM
Structure (SMILES): CC[C@@H](C)[C@H]1NC(=O)[C@@H]([C@H](C)O)NC(=O)[C@@H](Cc2c[nH]cn2)NC(=O)CNC(=O)[C@@H](CCCNC(=N)N)NC(=O)CNC(=O)[C@@H](Cc2ccccc2)NC1=O [VIAN-c4551] (cyclo([dI][dF]G[dR]G[dH][dT]))
Duration of protective effect against VEGF challenge after the eye drop [2]: 24 h
